# Data published in US20250052985A1, “SYSTEM AND METHOD FOR QUANTITATIVE PHASE IMAGING FOR MULTI-PARAMETRIC SCREENING OF TUMOR THERAPY RESPONSE” (UNIVERSITY OF UTAH RESEARCH FOUNDATION, priority 2023, published 2025).
# Values joined by “and” are separate entries in the source; they are usually repeats but may differ in a detail not shown here. Identical values can stand only once.
# Assays:
# [1] = tested on: MDA-MB-231 cells; test: Quantitative phase imaging (QPI) growth response, MDA-MB-231; format: cell-based; parameters: DoR QPI: scale not given here; ToR 20 μM: unit not given here; settings: for Max Asymptote / Min Asymptote: MDA-MB-231, 4-parameter Hill fit of mean SGR vs concentration, one line per replicate
# From the text: (§1) In some embodiments, breast cancer cell lines are imaged, representing diverse clinical subtypes, summarized in Table 2 below, using a QPI microscope (FIG. 1A) based on differential phase contrast (DPC) microscopy and phase reconstruction via a QPI microscope system. DPC is used for image acquisition and phase reconstruction because DPC's flexible design may be customized for high throughput phase measurements. […] As illustrated in the embodiment of FIG. 1A, a QPI microscope system 100 conducts assays in a 96-well plate (e.g., a well-plate 105) with 6-point dose response curves and up to five therapies in triplicate including solvent controls, summarized in Table 4 below. As described below, in reference to FIG. 1A, a growth response of cells is measured noninvasively using QPI via a QPI microscope system 110 before being assayed using a CTG reader 115.
# (§2) FIG. 1B illustrates a timeline plot 200 showing two plates (e.g., two, separate well-plates 105) set up in parallel to measure cell viability. With reference to FIG. 1B, two plates are set-up simultaneously for each experiment. A first plate 205 is incubated for 27 hours (h) post drug exposure prior to CTG analysis (3 h equilibration+24 h of imaging), which measures cell adenosine triphosphate (ATP) content as a surrogate for cell viability. A second plate 210 is imaged for 72 h after 3 h equilibration (e.g., 75 h) and followed by CTG. […] The imaging locations are imaged for 72 h, as shown by images 1700-1715 of FIG. 7.
# (§3) In some embodiments, a dose-dependent change in growth, as indicated by a change in the rate of mass accumulation or loss, is a parameter that can be extracted from QPI dose-response data. […] Individual specific growth rate measurements are indicated by points in the distribution of the graph 1200 of FIG. 2A. Blue is indicative of the DMSO control and red is indicative of doxorubicin. The black outline is a kernel density function fit to the distribution of specific growth rates for each condition (e.g., *p<0.05, **p<0.01). In some embodiments, the average SGR of each condition is fit to a sigmoid dose-response curve using a Hill equation. For example, computed logistic fit parameters using a 4-parameter Hill model via the QPI microscope system 110 for all conditions are summarized in Tables 5-8 below. To determine if there is a response, as illustrated by FIG. 2B, the QPI microscope system 110 tests goodness of fit, adjusts for degrees of freedom using an F-test at significance p<0.01 by comparison to a flat line, as an indicator of no response. For cases with a better fit to the Hill equation, the 4-parameter Hill curve may be used by the QPI microscope system 110 to determine the EC50, a measure of sensitivity to therapy because it represents the effective concentration at which 50% of the cells respond to therapy, as illustrated by FIG. 10. […] A 4-parameter Hill curve is fit to each dose response plot to extract the depth of response and EC50 for each cell/drug pair. A flat line represents no response due to failure of the F-test to reject the null hypothesis that the logistic fit is indistinguishable from a flat line. […] Each color indicates a different drug or therapy used.
# [2] = tested on: MCF-7 cells; test: cells; settings: for Max Asymptote / Min Asymptote: MCF-7, 4-parameter Hill fit of mean SGR vs concentration, one line per replicate; for Hill Slope: MCF-7, Hill fit
# From the text: as §1, §2, §3
# [3] = tested on: BT-474 cells; test: cells; settings: for Max Asymptote / Min Asymptote: BT-474, 4-parameter Hill fit of mean SGR vs concentration, one line per replicate
# From the text: as §1, §2, §3
# [4] = tested on: BT-474 cells; test: CellTiter-Glo (CTG) ATP viability assay, BT-474; format: cell-based; settings: for Min Asymptote: BT-474, Hill fit of luminescence normalized to solvent control, one line per replicate; for EC50: Homo sapiens, read-out: log10(EC50) (converted)
# Description: (§4) CTG (e.g., read by the CTG reader 115) is a cell viability assay that quantifies the amount of ATP present at the end of an experiment as an indicator of the number of live cells. The electronic controller 155 measures ATP content in each condition as a readout by a luminescent signal, which is normalized by the luminescence of the control (e.g., a control well) to determine cell viability relative to on-plate controls. In some embodiments, the CTG assay is performed by first removing 100 μL of media from each well on the well-plate 105, which is then replaced with an equal amount of CellTiter-Glo reagent (e.g., Promega, G7572). Assayed plates may be shaken at 500 RPM for 20 minutes and allowed to rest for 10 minutes. In some instances, 100 μL of volume from each well is transferred to a white 96-well plate (e.g., Perkin Elmer, 6005680). The electronic controller 155 collects luminescence data from each well using an Envision plate reader (e.g., Perkin Elmer) and normalized against the solvent control to measure ATP content. The electronic controller 155 fits a 4-parameter hill curve to the dose response to determine the EC50 and depth of response.
# [5] = tested on: MDA-MB-231 cells; test: CellTiter-Glo (CTG) ATP viability assay, MDA-MB-231; format: cell-based; settings: for Min Asymptote: MDA-MB-231, Hill fit of luminescence normalized to solvent control, one line per replicate; for EC50: Homo sapiens, read-out: log10(EC50) (converted)
# Description: as §4
smiles,measurement,setting,value
CC(=O)O[C@@]12CO[C@@H]1C[C@H](O)[C@@]1(C)C(=O)[C@H](O)C3=C(C)[C@@H](OC(=O)[C@H](O)[C@@H](NC(=O)OC(C)(C)C)c4ccccc4)C[C@@](O)([C@@H](OC(=O)c4ccccc4)[C@H]21)C3(C)C [Docetaxel],Max Asymptote,[1]; 24 h QPI,0.03347 and 0.03066 and 0.02364
same,Min Asymptote,[1]; 24 h QPI,0.01673 and 0.01578 and 0.02364
same,Max Asymptote,[1]; 72 h QPI,0.01382 and 0.01017 and 0.02742
same,Min Asymptote,[1]; 72 h QPI,0.04028 and 0.02962 and 0.02742
same,EC50,"[1]; Homo sapiens, MDA-MB-231, MDA-MB-231 cell line, EC50 of the standard deviation, read-out: EC50, SD (converted)",1.11 nM
same,growth rate and heterogeneity over time,[1]; MDA-MB-231,decrease in growth rate and heterogeneity simultaneously
same,growth rate and heterogeneity over time,"[1]; MDA-MB-231, 0.4 μM",decrease in growth rate and heterogeneity simultaneously
same,growth rate and heterogeneity over time,"[1]; MDA-MB-231, 2 μM",decrease in growth rate and heterogeneity simultaneously
same,SGR distribution over 72 h,"[1]; MDA-MB-231, 20 μM",distinctive long tail of non-responders that persists at 72 h
same,growth rate and heterogeneity over time,"[1]; MDA-MB-231, 20 μM",decrease in growth rate and heterogeneity simultaneously
same,growth rate and heterogeneity over time,"[1]; MDA-MB-231, lowest concentrations, FIG. 21 G-H",growth rate decreases over time with little change in heterogeneity
same,DoR QPI,"[1]; MDA-MB-231 cell line, depth of response, QPI",0.7
same,ToR 20 μM,"[1]; MDA-MB-231 cell line, time of response at 20 μM",3.5
same,Max Asymptote,[2]; 24 h QPI,0.02457 and 0.02891 and 0.02213
same,Min Asymptote,[2]; 24 h QPI,0.01057 and 0.01168 and 0.008144
same,Hill Slope,[2]; 24 h QPI,1.6196 and 1.4393 and 1.4829
same,Max Asymptote,[2]; 72 h QPI,0.00408 and 0.005816 and 0.004488
same,Min Asymptote,[2]; 72 h QPI,0.021 and 0.02567 and 0.0188
same,Hill Slope,[2]; 72 h QPI,1.6038 and 0.9248 and 1.3228
same,EC50,"[2]; Homo sapiens, MCF7, read-out: EC50, QPI, MCF-7 cell line, QPI growth rate",0.912 nM
same,DoR QPI,"[2]; MCF-7 cell line, depth of response, QPI",0.8
same,ToR 20 μM,"[2]; MCF-7 cell line, time of response at 20 μM",5.9
same,Max Asymptote,[3]; 24 h QPI,0.009874 and 0.01051
same,Min Asymptote,[3]; 24 h QPI,0.00518 and 0.00803
same,Hill Slope,"[3]; 24 h QPI, BT-474, Hill fit",0.2745 and 0.5361
same,Max Asymptote,[3]; 72 h QPI,0.00164 and 0.002702
same,Min Asymptote,[3]; 72 h QPI,0.009387 and 0.007464
same,Hill Slope,"[3]; 72 h QPI, BT-474, Hill fit",3.8183 and 2.5139
same,log10(EC50),"[3]; 72 h QPI, BT-474, Hill fit, EC50 in μM per Table 1",2.1891
same,growth rate and heterogeneity over time,"[3]; BT-474, 0.016 μM",decreased growth rate and increased heterogeneity
same,growth rate and heterogeneity over time,"[3]; BT-474, 0.4 μM",reduced growth rate and increased heterogeneity
same,growth rate and heterogeneity over time,"[3]; BT-474, 2 μM",population heterogeneity is increased and growth rate decreases
same,growth rate and heterogeneity over time,"[3]; BT-474, 20 μM","decreases, while the heterogeneity for both populations increases"
same,change of population spread (SD) of SGR,"[3]; BT-474, 20 μM, with significant decrease in mean response",no significant change to the spread
same,response of growth rate and heterogeneity to treatment,"[3]; BT-474, FIG. 5E, 22, 23",both reduced growth rate and slightly increased heterogeneity
same,DoR QPI,"[3]; BT-474 cell line, depth of response, QPI",0.8
same,ToR 20 μM,"[3]; BT-474 cell line, time of response at 20 μM",10.9
same,EC50,"[3]; Homo sapiens, BT-474, 72 h, read-out: log10(EC50), 72 h QPI, BT-474, Hill fit (converted), EC50 in μM per Table 1",0.00383 µM
same,Hill Slope,"[4]; 24 h CTG, BT-474, Hill fit",7.175
same,Min Asymptote,[4]; 24 h CTG,0.8491
same,Hill Slope,"[4]; 72 h CTG, BT-474, Hill fit",7.938 and 5.667
same,log10(EC50),"[4]; 72 h CTG, BT-474, Hill fit",2.403
same,Min Asymptote,[4]; 72 h CTG,0.2805 and 0.3348
same,DoR CTG,"[4]; BT-474 cell line, depth of response, CellTiter-Glo",0.6
same,EC50,"[4]; BT-474, 24 h, 24 h CTG, BT-474, Hill fit",13.7 nM
same,EC50,"[4]; BT-474, 72 h, 72 h CTG, BT-474, Hill fit",3.34 nM
same,Hill Slope,"[5]; 24 h CTG, MDA-MB-231, Hill fit",7.175
same,Min Asymptote,[5]; 24 h CTG,0.8491
same,log10(EC50),"[5]; 72 h CTG, MDA-MB-231, Hill fit",2.342
same,Min Asymptote,[5]; 72 h CTG,0.3348 and 0.2561
same,EC50,"[5]; MDA-MB-231, 24 h, 24 h CTG, MDA-MB-231, Hill fit",13.7 nM
same,EC50,"[5]; MDA-MB-231, 72 h, 72 h CTG, MDA-MB-231, Hill fit",3.96 nM
same,DoR CTG,"[5]; MDA-MB-231 cell line, depth of response, CellTiter-Glo",0.7
